This note sets out measurements from patent publication US8222261B2, “Chemical compounds” (GlaxoSmithKline, LLC, priority 2006, dated 2012).

The experiment relates to Male Sprague-Dawley rats. Kind of experiment: Oral glucose tolerance in rats. The experiment is classed as in vivo. The conditions noted are these: fasted rats, 10 mg/kg oral. The method, then: Eight weeks old male Sprague-Dawley rats had catheters surgically implanted into the jugular […] vein and allowed to recover for one week. Food was removed in the afternoon the day before the experiment to fast animals overnight. The following morning animals were randomly assigned to treatment groups to receive vehicle (n=7) (0.5% HPMC/0.1% Tween80), a GPR119 agonist (Example 1, 10 mg/kg) or a positive control (10 mg/kg), namely a DPPIV inhibitor as described above. Vehicle and compounds were delivered by oral gavage at a volume of […]. Two and a half hours after administration of vehicle or GPR119 agonist and one hour administration of DPPIV inhibitor, 2 g/kg dextrose was administered orally. […] The tubes were immediately centrifuged, plasma collected for subsequent measurement of glucose and hormone levels and stored at −80° C. Plasma glucose, insulin and total GLP-1 levels were measured as described above.
The data is represents as mean values±SEM from all animals within each treatment group.

Each structure is given as a SMILES string.

Consider `CC(C)OC(=O)N1CCC(Oc2ncnc3c2CCN3c2ccc(S(C)(=O)=O)cc2F)CC1` [Example 1, 1-Methylethyl 4-({7-[2-fluoro-4-(methylsulfonyl)phenyl]-6,7-dihydro-5H-pyrrolo[2,3-d]pyrimidin-4-yl}oxy)-1-piperidinecarboxylate], for which the “reduction of total glucose area under the curve (AUC)” value (Example 1 2.5 h and DPPIV inhibitor 1 h before 2 g/kg dextrose oral) is 38%. Also, under “Example 1 2.5 h and DPPIV inhibitor 1 h before 2 g/kg dextrose oral, vs vehicle”, the “glucose excursion during the 120 minutes oral glucose tolerance test” value is listed as “significantly decreased”. Further, the “baseline total GLP-1” value (before the oral glucose load, compared to vehicle and DPPIV treated animals) is “significantly increased”. In addition, the “Insulin AUC” value (oral glucose tolerance test, between treatment groups) is reported as “not significantly different”. In addition, the “total GLP-1 AUC” value (oral glucose tolerance test, compared to vehicle and DPPIV treated animals) was “significantly increased”.
